Test results published in patent publication US20240158348A1, “HERBICIDAL CYCLIC AMIDES N-SUBSTITUTED WITH A HALOALKYLSULFONYLANILIDE GROUP” (FMC Corporation, priority 2021, published 2024).

What was measured:
Type in all cases: in vivo
kochia (Bassia scoparia) = test: Test C postemergence, kochia; details: for Kochia plant response rating: visual injury, 0 to 100 scale (0 no effect, 100 complete control); for Plant response rating (0 to 100 scale), Kochia: 0 is no effect, 100 is complete control
Procedure, shortened: (§1)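 Steps: sow in loam soil blended with sand; treat soil preemergence by directed spray, or treat young plants (2–10 cm, one to two leaves) postemergence; hold in greenhouse 10 or 12 days; rate injury visually relative to untreated controls on a 0–100 scale.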

[1] = tested on: ryegrass, Italian (Italian ryegrass, Lolium multiflorum); test: Test C preemergence, Italian ryegrass; details: 0 is no effect, 100 is complete control
Procedure, shortened: as §1

[2] = tested on: foxtail, giant (giant foxtail, Setaria faberi); test: Test C postemergence, giant foxtail; details: for Foxtail, Giant plant response rating: visual injury, 0 to 100 scale (0 no effect, 100 complete control); for Plant response rating (0 to 100 scale), Foxtail, Giant: 0 is no effect, 100 is complete control
[3] = tested on: wheat (Triticum aestivum); test: Test C preemergence, wheat; details: 0 is no effect, 100 is complete control
rice (Oryza sativa) = test: Test D flooded paddy test, rice; design: key: 0 = no effect, 100 = complete control; details: 250 g ai/ha, Flood; applied to paddy water at 2-leaf stage; visual rating after 13 days; scale 0 (no effect) to 100 (complete control)
Procedure, shortened: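 2-leaf plants; flood 3 cm over soil; cpd into paddy water; depth maintained; greenhouse 13 d; visual rating vs controls, 0 = no effect, 100 = complete control; dash = no result.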

[4] = tested on: ryegrass, Italian (Italian ryegrass, Lolium multiflorum); test: Test C postemergence, Italian ryegrass; details: for Ryegrass, Italian plant response rating: visual injury, 0 to 100 scale (0 no effect, 100 complete control); for Plant response rating (0 to 100 scale), Ryegrass, Italian: 0 is no effect, 100 is complete control
Procedure, shortened: as §1

[5] = tested on: blackgrass (Alopecurus myosuroides); test: Test C postemergence, blackgrass; details: visual injury, 0 to 100 scale (0 no effect, 100 complete control)
Procedure, shortened: as §1

[6] = tested on: galium (catchweed bedstraw, Galium aparine); test: Test C postemergence, galium; details: for Galium plant response rating: visual injury, 0 to 100 scale (0 no effect, 100 complete control); for Plant response rating (0 to 100 scale), Galium: 0 is no effect, 100 is complete control

Compound | Kochia plant response rating (kochia (Bassia scoparia); 31 g ai/ha Postemergence) | Plant response rating (0 to 100 scale), Kochia (kochia (Bassia scoparia); 125 g ai/ha Postemergence) | Plant response rating (0 to 100 scale), Ryegrass, Italian ([1]; 31 g ai/ha Preemergence) | Plant response rating (0 to 100 scale), Ryegrass, Italian ([1]; 125 g ai/ha Preemergence) | Foxtail, Giant plant response rating ([2]; 31 g ai/ha Postemergence) | Plant response rating (0 to 100 scale), Foxtail, Giant ([2]; 125 g ai/ha Postemergence) | Plant response rating (0 to 100 scale), Wheat ([3]; 31 g ai/ha Preemergence) | Plant response rating (0 to 100 scale), Wheat ([3]; 125 g ai/ha Preemergence) | Plant response rating, Rice (rice (Oryza sativa)) | Ryegrass, Italian plant response rating ([4]; 31 g ai/ha Postemergence) | Ryegrass, Italian plant response rating ([4]; 125 g ai/ha Postemergence) | Blackgrass plant response rating ([5]; 31 g ai/ha Postemergence) | Galium plant response rating ([6]; 31 g ai/ha Postemergence) | Plant response rating (0 to 100 scale), Galium ([6]; 125 g ai/ha Postemergence) | Plant response rating (0 to 100 scale), Ryegrass, Italian ([4]; 125 g ai/ha Postemergence) | Kochia plant response rating (kochia (Bassia scoparia); 125 g ai/ha Postemergence) | Foxtail, Giant plant response rating ([2]; 125 g ai/ha Postemergence) | Blackgrass plant response rating ([5]; 125 g ai/ha Postemergence) | Galium plant response rating ([6]; 125 g ai/ha Postemergence)
Cc1c(NS(=O)(=O)C(F)(F)F)cc(N2CCCC(OC3CCC3)C2=O)c(C)c1F (centres unmarked) [Compound 36] | 40 | 80 | 100 | 100 | 10 | 30 | 40 | 100 | 0 | 0 | 40 | 20 | 60 | 80 | – | – | – | – | –
CCOC(=O)N(c1cc(N2CCC(OC3CC3)C2=O)c(C)cc1C)S(=O)(=O)C(F)(F)F (centres unmarked) [Compound 19] | 30 | 70 | 0 | 0 | 0 | 20 | 0 | 10 | 0 | 0 | – | 0 | 30 | 90 | 50 | – | – | – | –
Cc1c(N2CCC(OC3CC3)C2=O)cc(N(COC(=O)C(C)(C)C)S(=O)(=O)C(F)(F)F)c(C)c1C (centres unmarked) [Compound 49] | 40 | – | 40 | 100 | 60 | – | 30 | 90 | 40 | 50 | 90 | 30 | 80 | – | – | 60 | 90 | 60 | 90
Cc1cc(C)c(N2CCC(OCc3ccccc3)C2=O)cc1NS(=O)(=O)C(F)(F)F (centres unmarked) [Compound 61] | 60 | – | 60 | 90 | 20 | – | 30 | 100 | 20 | 0 | 60 | 30 | 70 | – | – | 90 | 50 | 70 | 90
CCCC(=O)OCN(c1cc(N2CCC(OC3CC3)C2=O)c(C)cc1C)S(=O)(=O)C(F)(F)F (centres unmarked) [Compound 20] | 70 | 80 | 100 | 100 | 80 | 90 | 70 | 100 | 15 | 60 | – | 90 | 90 | 100 | 100 | – | – | – | –
Cc1cc(C)c(N2CCC(OCC3CCC3(F)F)C2=O)cc1NS(=O)(=O)C(F)(F)F (centres unmarked) [Compound 52] | 20 | – | 0 | 80 | 0 | – | 90 | 100 | 0 | 40 | 100 | 20 | 70 | – | – | 70 | 50 | 40 | 100
Cc1cc(C)c(N2CCC(OCC3CCC3)C2=O)cc1NS(=O)(=O)C(F)(F)F (centres unmarked) [Compound 43] | 20 | – | 80 | 100 | 10 | – | 20 | 100 | 30 | 30 | 70 | 0 | 70 | – | – | 60 | 90 | 50 | 90
CO/N=C1\CCN(c2cc(NS(=O)(=O)C(F)(F)F)c(C)cc2C)C1=O [Compound 9, 1,1,1-trifluoro-N-[5-[3-(methoxyimino)-2-oxo-1-pyrrolidinyl]-2,4-dimethylphenyl]methanesulfonamide] | 80 | 90 | 60 | 100 | 40 | 90 | 90 | 100 | 30 | 50 | – | 80 | 90 | 100 | 80 | – | – | – | –
C#CC(C)OC1CCN(c2cc(NS(=O)(=O)C(F)(F)F)c(C)cc2C)C1=O (centres unmarked) [Compound 58] | 70 | – | 90 | 100 | 60 | – | 90 | 100 | 60 | 60 | 70 | 50 | 90 | – | – | 90 | 90 | 70 | 90
